{"source": "patent US20100310514A1", "about": "“Anti-Inflammatory Bacteria” (priority 2009, published 2010)", "key": {"AGS cells": {"test_system": "AGS cells", "conditions": "LL-37 20 μg/ml, 24 h"}, "AGS and TMK1 cells": {"test_system": "AGS and TMK1 cells", "conditions": "all LL-37 treatment groups", "procedure": "Cell culture and viability assay—The human gastric adenocarcinoma cell line AGS was purchased from American Type Culture Collection (Manassas, Va., USA). The gastric adenocarcinoma cell TMK1 was obtained from Dr. Eiichi Tahara (University of Hiroshima, Hiroshima, Japan). AGS and TMK1 cells were maintained in RPMI 1640 (Invitrogen) containing 10% fetal bovine serum (Invitrogen), 100 U/mL penicillin G, 100 μg/mL streptomycin, and maintained at 37° C., 95% humidity, and 5% carbon dioxide. Cell viability was determined by lactate dehydrogenase release assay (Roche, Indianapolis, Ind., USA)."}, "[1]": {"test_system": "Smad1/5, Smad2/3, cyclin E2", "test": "Western blot of Smad/BMP signaling proteins in TMK1 cells", "type": "cell-based, human", "conditions": "MG-132, 4 h (1 μmol/L in FIG. 6)"}, "[2]": {"test_system": "Smad6, Smad7, p21Waf1/Cip1, p15Ink4a, p27Kip1, BMP ligands", "test": "RT-PCR / real-time PCR mRNA expression in TMK1 cells", "type": "cell-based, human", "conditions": "MG-132, 4 h (1 μmol/L in FIG. 6)"}, "[3]": {"test_system": "dextran sodium sulfate-induced ulcerative colitis", "test": "DSS-induced ulcerative colitis, oral bacteria given during 7 days of DSS", "type": "in vivo, Balb/c mice", "conditions": "600 mg/kg orally once daily", "procedure": "Male Balb/c mice 6-8 weeks old were used in the following experiments. They were allowed free access to standard laboratory chow and tap water. All animals were housed in an air-conditioned room with controlled temperature (22° C.±1° C.), humidity (65%-70%), and day/night cycle (12:12-hr light: dark). Mice were induced with acute colitis by giving 3% dextran sulfate sodium (DSS, molecular weight, 35-50 kDa) prepared in drinking water for 7 days (from Day 0 to Day 7). Normal control mice received tap water throughout the experiment. […] In a different group of transformed NZ3900, 0.25 ng/ml nisin was added and further incubated for 3 h. Bacteria were then harvested by centrifugation (5000 rpm, 15 min) and washed twice with sterilized PBS (pH 7.4) and resuspended in sterilized water to give 2×10^10 cfu/ml. Mice were given intragastrically (i.g.) with 0.5 ml (1×10^10 cfu) bacteria once daily at the beginning of the DSS feeding. Animals were sacrificed at the end of 7 days DSS drinking and bacteria feeding. Colonic myeloperoxidase (MPO) was measured as described previously (Guo X, et al. Gastroenterology 117, 884-892 (1999)). In brief, colon tissues were homogenized in an ice-cold […] PBS (pH 6.0) solution with 0.5% hexa-decyl-trimethyl-ammonium bromide. The homogenate was freeze-thawed three times, followed by repeated sonication for 60 seconds each and centrifugation for 20 minutes at 14,000 revolutions per minutes at 4° C. The activity of the supernatant was determined spectrophotometrically at 450 nm. The final value was expressed as enzyme units per mg of protein. Crypt loss is a histological finding in colitis. Therefore, histological analysis of mice administered with formulations per FIG. 16. The crypts were graded on a 4 grade scale as follows: Grade 0: intact crypt; Grade 1: loss of the basal ⅓ of the crypt; Grade 2: loss of the basal ⅔ of the crypt; Grade 3: loss of entire crypt with surface epithelium remaining intact; Grade 4: loss of both the entire crypt and surface epithelium."}}, "note": "Residues, ends and D or L forms follow the SMILES beside them. *: point of attachment. Cbz = O=C(OCc1ccccc1)*"}
{"compound": "C=C1/C(=C\\C=C2/CCC[C@]3(C)[C@@H]([C@H](C)CCCC(C)(C)O)CC[C@@H]23)C[C@@H](O)C[C@@H]1O", "note": "[1α,25-dihydroxylvitamin D3]", "values": [{"measurement": "TMK1 cell proliferation on induction of endogenous LL-37", "setting": "TMK1 cells; 1 μmol/L VD3 for 24 h, read 48 h post-treatment", "result": "inhibited cell proliferation"}]}
{"compound": "CC[C@H](C)[C@H](NC(=O)[C@H](CCCCN)NC(=O)[C@H](CCC(=O)O)NC(=O)[C@H](CCCCN)NC(=O)[C@H](CO)NC(=O)[C@H](CCCCN)NC(=O)[C@H](CCCNC(=N)N)NC(=O)[C@H](Cc1ccccc1)NC(=O)[C@H](Cc1ccccc1)NC(=O)[C@H](CC(=O)O)NC(=O)CNC(=O)[C@H](CC(C)C)NC(=O)[C@@H](N)CC(C)C)C(=O)NCC(=O)N[C@@H](CCCCN)C(=O)N[C@@H](CCC(=O)O)C(=O)N[C@@H](Cc1ccccc1)C(=O)N[C@@H](CCCCN)C(=O)N[C@@H](CCCNC(=N)N)C(=O)N[C@H](C(=O)N[C@H](C(=O)N[C@@H](CCC(N)=O)C(=O)N[C@@H](CCCNC(=N)N)C(=O)N[C@H](C(=O)N[C@@H](CCCCN)C(=O)N[C@@H](CC(=O)O)C(=O)N[C@@H](Cc1ccccc1)C(=O)N[C@@H](CC(C)C)C(=O)N[C@@H](CCCNC(=N)N)C(=O)N[C@@H](CC(N)=O)C(=O)N[C@@H](CC(C)C)C(=O)N[C@H](C(=O)N1CCC[C@H]1C(=O)N[C@@H](CCCNC(=N)N)C(=O)N[C@H](C(=O)N[C@@H](CCC(=O)O)C(=O)N[C@@H](CO)C(=O)O)[C@@H](C)O)C(C)C)[C@@H](C)CC)C(C)C)[C@@H](C)CC", "note": "[LL-37]", "values": [{"measurement": "inhibition of AGS cell proliferation ([3H]thymidine incorporation)", "setting": "AGS cells", "result": 10, "unit": "%"}, {"measurement": "inhibition of TMK1 cell proliferation ([3H]thymidine incorporation)", "setting": "TMK1 cells; LL-37 20 μg/ml, 24 h", "result": "about 60%"}, {"measurement": "cell viability (lactate dehydrogenase release)", "setting": "AGS and TMK1 cells", "result": "unaffected"}]}
{"compound": "CC(C)C[C@@H](C=O)NC(=O)[C@H](CC(C)C)NC(=O)[C@H](CC(C)C)NC(=O)OCc1ccccc1", "note": "[MG-132] (Cbz-Leu-Leu-Leu-aldehyde)", "values": [{"measurement": "Smad1/5 phosphorylation", "setting": "[1]", "result": "dose-dependently increased"}, {"measurement": "BMP4 mRNA expression", "setting": "[2]", "result": "dose-dependently increased"}]}
{"compound": "O=C(O)c1cc(/N=N/c2ccc(S(=O)(=O)Nc3ccccn3)cc2)ccc1O", "note": "[Sulfasalazine, sulfasalazine]", "values": [{"measurement": "MPO activity", "setting": "[3]", "result": "did not affect"}, {"measurement": "mucus level", "setting": "[3]", "result": "did not affect"}, {"measurement": "number of apoptotic cells in the colonic mucosa", "setting": "[3]", "result": "did not affect"}, {"measurement": "number of microorganisms in the colon", "setting": "[3]", "result": "did not affect"}]}
